# From article PMC9515472, “The AhR ligand phthiocol and vitamin K analogs as Pseudomonas aeruginosa quorum sensing inhibitors” (Frontiers in Microbiology, 2022)
# Read-outs that look alike come from different tables or passages of the source.
# What was measured:
# [1] = system: P. aeruginosa pqs QS system (pqsA-gfp); assay type: cell-based, Pseudomonas aeruginosa
# P. aeruginosa PAO1 = assay type: cell-based, Pseudomonas aeruginosa
# [2] = target: T1, human recombinant AhR protein (Homo sapiens, UniProt P35869); experiment: Microscale thermophoresis (MST) binding to AhR protein
# T1 sequence (P35869 128-399): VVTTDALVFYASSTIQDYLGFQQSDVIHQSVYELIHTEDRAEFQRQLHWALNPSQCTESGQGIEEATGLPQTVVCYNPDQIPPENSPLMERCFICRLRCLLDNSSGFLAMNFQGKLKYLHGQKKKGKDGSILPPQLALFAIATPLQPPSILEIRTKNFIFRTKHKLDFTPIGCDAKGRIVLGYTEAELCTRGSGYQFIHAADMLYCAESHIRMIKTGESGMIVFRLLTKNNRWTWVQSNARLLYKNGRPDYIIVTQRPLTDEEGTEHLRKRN
# AHRR = experiment: qRT-PCR of AhR downstream gene AHRR in THP-1 cells; assay type: cell-based, human; conditions: for AHRR expression change in THP-1 AhR KD cells: THP-1 AhR-Knockdown (KD) cells; for AHRR transcription promoted: vs DMSO, increase
# [3] = system: P. aeruginosa pqs QS system (pqsA-gfp); assay type: cell-based, Pseudomonas aeruginosa; remark: listed apart in the source
# CYP1B1 = experiment: qRT-PCR of AhR downstream gene CYP1B1 in THP-1 cells; conditions: for CYP1B1 expression change in THP-1 AhR KD cells: THP-1 AhR-Knockdown (KD) cells
# [4] = system: P. aeruginosa PAO1 pyocyanin production; experiment: Pyocyanin quantification assay; assay type: cell-based, Pseudomonas aeruginosa
# [5] = system: P. aeruginosa PAO1 biofilm formation; experiment: Biofilm formation assay (crystal violet staining); assay type: cell-based, Pseudomonas aeruginosa
# [6] = system: P. aeruginosa rhamnolipid productions; assay type: cell-based, Pseudomonas aeruginosa; conditions: Supplementary Figure 1
# [7] = target: PqsR binding to the pqsA promoter (Pseudomonas aeruginosa, UniProt Q9I4X0); experiment: Electrophoretic mobility shift assay (EMSA) with biotinylated pqsA promoter and cell lysates; assay type: biochemical; conditions: PAO1 WT cell lysates
# Chain of PqsR binding to the pqsA promoter (Q9I4X0 whole entry): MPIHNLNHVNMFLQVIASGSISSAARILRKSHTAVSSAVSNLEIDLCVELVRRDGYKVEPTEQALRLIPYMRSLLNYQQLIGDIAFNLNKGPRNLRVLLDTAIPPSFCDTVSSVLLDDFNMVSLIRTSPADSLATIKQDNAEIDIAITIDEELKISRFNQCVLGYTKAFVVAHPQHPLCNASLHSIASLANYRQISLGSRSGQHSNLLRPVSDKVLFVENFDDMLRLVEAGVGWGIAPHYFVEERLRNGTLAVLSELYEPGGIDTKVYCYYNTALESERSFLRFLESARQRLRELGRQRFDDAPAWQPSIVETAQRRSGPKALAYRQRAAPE
# [8] = system: P. aeruginosa PAO1 proteome; assay type: cell-based, Pseudomonas aeruginosa; conditions: Bac_Pht vs Bac
# P.aeruginosa = system: P.aeruginosa; parameters: method as in Shinde and Wadekar, 2018; conditions: due to metal ion chelating capacity; ref Shinde and Wadekar, 2018; cited from earlier work
# [9] = 10 μM, THP-1 human monocytes, 24 h, vs DMSO alone, repression
# [10] = 10 μM, THP-1 human monocytes, 24 h
SMILES,inhibition of pqsA-gfp expression [1],effect on growth of P. aeruginosa (P. aeruginosa PAO1),Kd [2],AHRR expression change in THP-1 AhR KD cells (AHRR),induction of pqsA-gfp expression [3],CYP1B1 expression change in THP-1 AhR KD cells (CYP1B1),AHRR transcription promoted (AHRR; [10]),other results
"CC(C)=CCC/C(C)=C/CC/C(C)=C/CC/C(C)=C/CC1=C(C)C(=O)c2ccccc2C1=O [Vitamin K2, Menaquinones]",inhibit pqsA-gfp expression dose-dependently,without affecting growth,586 nM,,,,,
"CCCCCCCc1[nH]c2ccccc2c(=O)c1O [PQS, 2-heptyl-3-hydroxy-4 (1H)-quinolone]",,could not affect the growth,3750 nM,no significant expression changes,induced the pqsA-gfp expression in a dose-dependent manner,no significant expression changes,,AHRR transcription repressed (AHRR; [9]): 2.5 fold; CYP1B1 transcription repressed (CYP1B1; [9]): 2.3 fold
"CC1=CC(=O)c2ccccc2C1=O [Vitamin K3, Menadione]",inhibit pqsA-gfp expression dose-dependently,without affecting growth,2170 nM,,,,,
"CC1=C(O)C(=O)c2ccccc2C1=O [Pht, 2-hydroxy-3-methyl-1,4-naphthoquinone]",inhibit pqsA-gfp expression in a dose-dependent manner,could not affect the growth,474 nM,,not,,1.9 fold,"optimal concentration for inhibition of pqsA-gfp expression ([1]; PAO1 PpqsA-gfp strain): 750 nM; pyocyanin production [4]: suppressed by Pht to a level comparable to that of PAO1 ΔlasIΔrhlI strain and the ΔpqsC strain; biofilm formation [5]: suppressed by Pht to a level comparable to that of the PAO1 ΔlasIΔrhlI and the ΔpqsC strains; rhamnolipid production [6]: did not inhibit; effect on binding of PqsR (PAO1 cell lysates) to Bio-pqsA promoter [7]: attenuated the interaction between PAO1 cell lysates and Bio-pqsA; FC(group2_group1) ([8]; PA1768, Zn_protease domain-containing protein, pValue 0.168581, Sig 0): 0.5758; FC(group2_group1) ([8]; PA4677, Dipeptidase, pValue 0.361511, Sig 0): 0.5653; FC(group2_group1) ([8]; PA5194, acidPPc domain-containing protein, pValue 0.333715, Sig 0): 0.5551; FC(group2_group1) ([8]; PA5195, Heat shock protein 15, pValue 0.131054, Sig 0): 0.3354; FC(group2_group1) ([8]; PA5437, Probable transcriptional regulator, pValue 0.358265, Sig 0): 0.4217; anti-P.aeruginosa activity (P.aeruginosa): moderate; CYP1B1 transcription promoted (CYP1B1; 10 μM, THP-1 human monocytes, 24 h, vs DMSO, increase): 2.2 fold"
"CC1=C(C/C=C(\C)CCC[C@H](C)CCC[C@H](C)CCCC(C)C)C(=O)c2ccccc2C1=O [Vitamin K1, Phylloquinone]",inhibit pqsA-gfp expression dose-dependently,without affecting growth,1990 nM,no change,,no change,1.6 fold,
